Patent US10265132B2, “Antimicrobial elastomeric articles” (ALLEGIANCE CORPORATION, priority 2012, dated 2019)

Experiments:
MRSA = experiment: Antimicrobial activity (log reduction) of coated gloves against MRSA, 5 minute exposure time; design: species or system methicillin-resistant Staphylococcus aureus
Protocol: (§1) Antimicrobial Activity: The antimicrobial activity of sample 1-1 was tested before and after aging against E. coli and MRSA with a 5 minute exposure time:
(§2) The coating composition and formulation fabrication remained the same as describe in Example 1. Sample 2-1 describes coated gloves that were stored in desiccated environments (described above in Example 1) before and after the application of the antimicrobial coating. Samples 2-2 and 2-3 represent coated gloves that were pre- and post-conditioned (using the technique described above in Example 1), respectively. Sample 2-4 describes coated gloves that were not desiccated before or after application of the antimicrobial coating. Samples 2-1 through 2-4 were tested before and after conditioning against E. coli and MRSA with a 5 minute exposure time.
The coating composition, formulation fabrication, and coating application method remained the same as described in Example 1. Antimicrobial gloves were packed into two packaging prototypes. The prototypes contained the antimicrobial coated gloves and the prototypes were subjected to outside conditions meant to simulated real world conditions experienced by medical glove products. Sample 4-1 is a control glove that was not packaged. Sample 4-2 is a packaging prototype comprised of Amcor aluminum foil laminate packaging containing antimicrobial-coated gloves and desiccant. […]
(§3) The formulation fabrication and coating application were the same as described in Example 1. […] These formulations were then applied to the gloves and the concentration of CHG needed on the coated glove in order to achieve at least 4 log efficacy was measured. The concentration of CHG was measured using UV-Visible spectroscopy with the assistance of a sodium hypobromite indicator. CHG was extracted from the glove using water and the unknown concentration was calculated versus a predetermined standard curve. The antimicrobial efficacy after an exposure time of 5 minutes was determined against E. coli and MRSA.

[1] = test system: broad spectrum of microbes; experiment: Minimum concentration of CHG on coated glove needed for 4 log efficacy in 5 minutes; settings: 5 minutes exposure, E. coli and MRSA
Protocol: The formulation fabrication and coating application were the same as described in Example 1. The concentration of the active component, CHG, was varied in the formulation. These formulations were then applied to the gloves and the concentration of CHG needed on the coated glove in order to achieve at least 4 log efficacy was measured. The concentration of CHG was measured using UV-Visible spectroscopy with the assistance of a sodium hypobromite indicator. CHG was extracted from the glove using water and the unknown concentration was calculated versus a predetermined standard curve. The antimicrobial efficacy after an exposure time of 5 minutes was determined against E. coli and MRSA.

E. coli = experiment: Antimicrobial activity (log reduction) of coated gloves against E. coli, 5 minute exposure time
Protocol: as §1, §2
The coating composition, formulation fabrication, and coating application method remained the same as described in Example 1, Sample 3-1 describes antimicrobial-coated gloves that were exposed to 23° C. with a relative humidity of 45%. Sample 3-2 describes antimicrobial-coated gloves that were exposed to 23° C. with a relative humidity of 55%. Sample 3-3 describes antimicrobial-coated gloves that were exposed to 23° C. with a relative humidity of 75%. All samples were tested after one and two weeks exposure to the temperature and humidity levels. Antimicrobial efficacy was recorded against E. coli after a 5 minute exposure time. […]
as §3

[2] = CHG concentration on glove 2.09 μg/cm^2, 5 minutes exposure
[3] = CHG concentration on glove 7.63 μg/cm^2, 5 minutes exposure
[4] = CHG concentration on glove 11.90 μg/cm^2, 5 minutes exposure

SMILES: N=C(NCCCCCCNC(=N)NC(=N)Nc1ccc(Cl)cc1)NC(=N)Nc1ccc(Cl)cc1.O=C(O)[C@H](O)[C@@H](O)[C@H](O)[C@H](O)CO.O=C(O)[C@H](O)[C@@H](O)[C@H](O)[C@H](O)CO [CHG, chlorhexidine digluconate]
- Log Reduction MRSA (MRSA; [2]): 3.08 log
- Log Reduction MRSA (MRSA; [3]): 4.16 log
- Log Reduction MRSA (MRSA; [4]): 4.06 log
- CHG needed to offer 4 log antimicrobial efficacy [1]: about 7.6 μg
- Log Reduction E. coli (E. coli; [2]): 1.67 log
- Log Reduction E. coli (E. coli; [3]): 4.18 log
- Log Reduction E. coli (E. coli; [4]): 4.72 log
